Measurements reported in PMC7113773 (Antiviral Research, 2014).
Counter-ions that a name gives are not always drawn. Like-named read-outs stand apart in the source and are kept apart here.

Columns and labels:
[1] = system: A/Puerto Rico/8/34 (H1N1; PR8); assay: organism not typed; assay type: cell-based, influenza A virus; details: for EC50: read-out: EC50 for influenza virus A/Puerto Rico/8/34
A/Hong Kong/8/68 (H3N2) = assay: organism not typed; assay type: cell-based, influenza A virus; details: for EC50: read-out: EC50 for influenza virus A/Hong Kong/8/68
in vitro = details: dog
[2] = system: influenza A/H1N1, A/H3N2 and B viruses; assay: CPE reduction assay / screen, stated for the three influenza viruses together; assay type: cell-based; details: even at 100 μM
B/Lee/40 = assay type: cell-based, influenza B virus; details: for EC50: read-out: EC50 for influenza virus B/Lee/40
[3] = system: PR8 virus NP and HA protein; assay type: cell-based, influenza A virus; details: 11, 33 and 100 μM, 24 h at 35 °C
MDCK cells = details: for CC50: read-out: CC50 for MDCK cells, mock-infected MDCK cells, day 3, MTT
[4] = system: pore-forming glycoprotein perforin; details: previous study, ref Lena et al., 2008; cited from earlier work

SMILES | EC50 ([1]; MDCK, 72 h) [µM] | EC50 (A/Hong Kong/8/68 (H3N2); MDCK, 72 h) [µM] | CC50 (in vitro) [µM] | also measured
Cc1cc2c(c(=S)[nH]1)C(=O)O/C2=C\c1ccc(Br)s1 [Compound 15w, (Z)-1-((5-Bromothiophen-2-yl)methylene)-6-methyl-4-thioxo-4,5-dihydrofuro[3,4-c]pyridin-3(1H)-one] | > 100 | > 100 | > 900 | –
CCc1ccc(/C=C2\OC(=O)c3c2cc(C)[nH]c3=S)s1 [Compound 15u, (Z)-1-((5-Ethylthiophen-2-yl)methylene)-6-methyl-4-thioxo-4,5-dihydrofuro[3,4-c]pyridin-3(1H)-one] | 31.7 ± 21.7 | 32.6 ± 10.2 | > 900 | –
Cc1cc2c(c(=S)[nH]1)C(=O)O/C2=C\c1ncc[nH]1 [Compound 15p, (Z)-1-((1H-Imidazol-2-yl)methylene)-6-methyl-4-thioxo-4,5-dihydrofuro[3,4-c]pyridin-3(1H)-one] | > 100 | > 100 | > 900 | anti-influenza activity [2]: no anti-influenza activity
Cc1cc2c(c(=O)[nH]1)C(=O)O/C2=C\c1c[nH]c2ccc(F)cc12 [Compound 15b, (Z)-1-((5-Fluoro-1H-indol-3-yl)methylene)-6-methylfuro[3,4-c]pyridine-3,4(1H,5 H)-dione] | 22.5 ± 10.8 | 26.8 ± 16.2 | > 900 | –
O=C1O/C(=C\c2c[nH]c3ccc(F)cc23)c2cc(-c3ccccc3)[nH]c(=S)c21 [Compound 15d, (Z)-1-((5-Fluoro-1H-indol-3-yl)methylene)-6-phenyl-4-thioxo-4,5-dihydrofuro[3,4-c]pyridin-3(1H)-one] | 63.8 ± 25.2 | 32.5 ± 13.3 | > 900 | –
Cc1cc2c(c(=S)[nH]1)C(=O)O/C2=C\c1c[nH]cn1 [Compound 15o, (Z)-1-((1H-imidazol-4-yl)methylene)-6-methyl-4-thioxo-4,5-dihydrofuro[3,4-c]pyridin-3(1H)-one] | > 100 | > 100 | > 900 | anti-influenza activity [2]: no anti-influenza activity
Cc1cc2c(c(=O)[nH]1)C(=O)O/C2=C\c1ccsc1 [Compound 15k, (Z)-6-Methyl-1-(thiophen-3-ylmethylene)furo[3,4-c]pyridine-3,4(1H,5H)-dione] | > 19.8 | > 19.8 | 19.8 ± 8.2 | –
Cc1cc2c(c(=S)[nH]1)C(=O)O/C2=C\c1ccsc1 [Compound 15j, (Z)-6-Methyl-1-(thiophen-3-ylmethylene)-4-thioxo-4,5-dihydrofuro[3,4-c]pyridi n-3(1H)-one] | 5 | 6.2 | > 900 | S.I. (selectivity index, CC50/EC50), A/Puerto Rico/8/34 [1]: 5.0 ± 1.0 (>180.0); S.I. (selectivity index, CC50/EC50), A/Hong Kong/8/68 (A/Hong Kong/8/68 (H3N2)): 6.2 ± 3.1 (>145.2); S.I. (selectivity index, CC50/EC50), B/Lee/40 (B/Lee/40): 5.9 ± 2.0 (>152.5); viral protein level (NP, HA) in cells [3]: Reduction of the influenza viral protein level; toxicity to MDCK cells (MDCK cells; at 900 μM, uninfected MDCK cells): no toxicity; inhibitory effect on cell lysis induced by perforin [4]: none
Cc1cc2c(c(=S)[nH]1)C(=O)O/C2=C\c1ccoc1 [Compound 15m, (Z)-1-(Fran-3-ylmethylene)-6-methyl-4-thioxo-4,5-dihydrofuro[3,4-c]pyridin-3(1H)-one] | – | – | – | EC50 [1]: 21.4 ± 12.6 µM; EC50 (A/Hong Kong/8/68 (H3N2)): 34.1 ± 10 µM; EC50 (B/Lee/40): 16.3 ± 8.5 µM; CC50 (MDCK cells): > 900 µM; inhibitory effect on cell lysis induced by perforin [4]: none
Cc1cc2c(c(=O)[nH]1)C(=O)O/C2=C\c1ccoc1 [Compound 15n, (Z)-1-(Furan-3-ylmethylene)-6-methylfuro[3,4-c]pyridine-3,4(1H,5H)-dione] | > 61.9 | > 61.9 | 61.9 ± 10.7 | –
O=C1O/C(=C\c2cccs2)c2cc(-c3ccccc3)[nH]c(=S)c21 [Compound 15r, (Z)-6-Phenyl-1-(thiophen-2-ylmethylene)-4-thioxo-4,5-dihydrofuro[3,4-c]pyridin-3(1H)-one] | 28.9 ± 12.6 | 15.1 ± 3.8 | > 900 | –
Cc1cc2c(c(=S)[nH]1)C(=O)O/C2=C\c1c[nH]c2ccccc12 [Compound 15e, (Z)-1-((1H-Indol-3-yl)methylene)-6-methyl-4-thioxo-4,5-dihydrofuro[3,4-c]pyridi n-3(1H)-one] | > 100 | > 100 | > 900 | inhibitory effect on cell lysis induced by perforin [4]: inactive
Cc1cc2c(c(=S)[nH]1)C(=O)O/C2=C\c1cc(Br)cs1 [Compound 15v, (Z)-1-((4-Bromothiophen-2-yl)methylene)-6-methyl-4-thioxo-4,5-dihydrofuro[3,4-c]pyridin-3(1H)-one] | 63.7 ± 36 | 47.1 ± 18.7 | > 900 | –
Cc1cc2c(c(=S)[nH]1)C(=O)O/C2=C\c1csc2ccccc12 [Compound 15f, (Z)-1-(Benzo[b]thiophen-3-ylmethylene)-6-methyl-4-thioxo-4,5-dihydrofuro[3,4-c]pyridin-3(1H)-one] | 26.1 ± 6 | 28.8 ± 6.2 | > 900 | inhibitory effect on cell lysis induced by perforin [4]: active
NC(=O)c1ncn([C@@H]2O[C@H](CO)[C@@H](O)[C@H]2O)n1 [Ribavirin, ribavirin, reference compound] | 18.8 ± 4.3 | 20.2 ± 2.4 | – | –
Cc1ccsc1/C=C1\OC(=O)c2c1cc(C)n(C)c2=S [Compound 15x, (Z)-5,6-Dimethyl-1-((3-methylthiophen-2-yl)methylene)-4-thioxo-4,5-dihydrofuro[3,4-c]pyridin-3(1H)-one] | 12.1 | 11.7 | > 900 | S.I. (selectivity index, CC50/EC50), A/Puerto Rico/8/34 [1]: 12.1 ± 9.5 (>74.4); S.I. (selectivity index, CC50/EC50), A/Hong Kong/8/68 (A/Hong Kong/8/68 (H3N2)): 11.7 ± 2.7 (>76.9); S.I. (selectivity index, CC50/EC50), B/Lee/40 (B/Lee/40): 8.0 ± 3.6 (>112.5)
O=C1O/C(=C\c2ccsc2)c2cc(-c3ccccc3)[nH]c(=S)c21 [Compound 15l, (Z)-6-Penyl-1-(thiophen-3-ylmethylene)-4-thioxo-4,5-dihydrofuro[3,4-c]pyridin-3(1H)-one] | – | – | – | EC50 [1]: > 100 µM; EC50 (A/Hong Kong/8/68 (H3N2)): 27.1 ± 5.8 µM; EC50 (B/Lee/40): > 100 µM; CC50 (MDCK cells): > 900 µM
Cc1cc2c(c(=S)[nH]1)C(=O)O/C2=C\c1ccc(C)s1 [Compound 15t, (Z)-6-Methyl-1-((5-methylthiophen-2-yl)methylene)-4-thioxo-4,5-dihydrofuro[3,4-c]pyridin-3(1H)-one] | 8 | 12.2 | > 900 | S.I. (selectivity index, CC50/EC50), A/Puerto Rico/8/34 [1]: 8.0 ± 3.6 (>112.5); S.I. (selectivity index, CC50/EC50), A/Hong Kong/8/68 (A/Hong Kong/8/68 (H3N2)): 12.2 ± 2.9 (>73.8); S.I. (selectivity index, CC50/EC50), B/Lee/40 (B/Lee/40): 9.6 ± 3.5 (>93.8); inhibitory effect on cell lysis induced by perforin [4]: active
Cc1c(/C=C2\OC(=O)c3c2cc(C)n(C)c3=S)sc2ccccc12 [Compound 15i, (Z)-5,6-Dimethyl-1-((3-methylbenzo[b]thiophen-2-yl)methylene)-4-thioxo-4,5-dihydrofuro[3,4-c]pyridin-3(1H)-one] | > 100 | > 100 | > 900 | –
Cc1cc2c(c(=S)[nH]1)C(=O)O/C2=C\c1sc2ccccc2c1C [Compound 15h, (Z)-6-Methyl-1-((3-methylbenzo[b]thiophen-2-yl)methylene)-4-thioxo-4,5-dihydrofuro[3,4-c]pyridin-3(1H)-one] | > 100 | > 100 | > 900 | –
NC12CC3CC(CC(C3)C1)C2 [Amantadine hydrochloride, reference compound] | > 100 | 2.8 ± 1.7 | > 100 | –
Cc1cc2c(c(=S)[nH]1)C(=O)O/C2=C\c1sccc1C [Compound 15s, (Z)-6-Methyl-1-((3-methylthiophen-2-yl)methylene)-4-thioxo-4,5-dihydrofuro[3,4-c]pyridin-3(1H)-one] | 17.6 | 12.7 | > 900 | S.I. (selectivity index, CC50/EC50), A/Puerto Rico/8/34 [1]: 17.6 ± 11.0 (>51.1); S.I. (selectivity index, CC50/EC50), A/Hong Kong/8/68 (A/Hong Kong/8/68 (H3N2)): 12.7 ± 8.2 (>70.9); S.I. (selectivity index, CC50/EC50), B/Lee/40 (B/Lee/40): 14.0 ± 7.4 (>64.3)
Cc1cc2c(c(=S)n1C)C(=O)O/C2=C\c1cc2cc(F)ccc2[nH]1 [Compound 15c, (Z)-1-((5-Fluoro-1H-indol-2-yl)methylene)-5,6-dimethyl-4-thioxo-4,5-dihydrofuro[3,4-c]pyridin-3(1H)-one] | > 100 | > 100 | > 900 | –
